Measurements taken from article PMC11736144, “A sleepy cannabis constituent: cannabinol and its active metabolite influence sleep architecture in rats” (Neuropsychopharmacology, 2024).
Like-named read-outs stand apart in the source and are kept apart here.

Legend:
[1] = Pharmacokinetic analysis of CBN and metabolites in rat plasma and brain (LC-MS/MS); assay type: in vivo; settings: for Kp: brain and plasma, 10 mg/kg, read-out: Brain/plasma ratio
Description: Rats received 10 mg/kg CBN IP at approximately ZT13. Rats were then anesthetized with isoflurane at selected ZT points (13, 13.5, 14, 15, 17, 19, and 21) and blood was collected by terminal cardiac puncture. Brains were harvested, snap frozen on dry ice and plasma was isolated via centrifugation at 9000 × g for 10 min at 4 °C. All tissues were stored at −80 °C until analysis. CBN and metabolite concentrations in plasma and brain samples were assayed by liquid chromatography-tandem mass spectrometry (LC–MS/MS) using a using a Shimadzu Nexera LC-30AD UHPLC system coupled to a Shimadzu SPD-20AV photodiode array detector and a Shimadzu LC–MS-8040 triple-quadrupole mass spectrometer, equipped with an electrospray ionization (ESI) source (Shimadzu Corp.; Kyoto, Japan) as described previously.
LC-MS/MS. Plasma samples (50 µL) were spiked with internal standard (12.5 µg/mL d3-THC, 5 µL) and protein precipitation was achieved by vortex-mixing with a 3x volume of ice-cold acetonitrile. The organic layer was isolated by centrifugation (6000 g for 10 min, 4 °C) and evaporated to dryness using N2 gas. Samples were reconstituted in acetonitrile (90 µL) and 0.1% ammonium formate in water (300 µL) for supported-liquid extraction (SLE) using dichloromethane and methyl tert-butyl ether Biotage Isolute SLE+ columns (Uppsala, Sweden) as previously described. Brain samples were prepared as described for plasma samples with minor modifications. Briefly, each half brain was homogenised in methanol: water (2:1, 10x, w/v) and spiked with d3-THC as an internal standard. Homogenates were centrifuged (20,000 g for 30 min, 4 °C). Supernatants were then extracted and prepared as described above.
Quantification of CBN, 11-OH-CBN and 11-COOH-CBN in plasma and brain samples was performed by comparing experimental samples to eight-point standard curves prepared with known amounts of cannabinoid. Plasma and brain concentrations at each time point were averaged and pharmacokinetic parameters were calculated by noncompartmental analysis. Elimination rate constants were determined by linear regression of the terminal component of the concentration-time curve using GraphPad Prism 8.2 (La Jolla, USA). The log-linear trapezoidal method was used to calculate the area under concentration-time curve using equations described previously.

human CB2 receptors = target: T1, human CB2 receptors (Homo sapiens, UniProt P34972); assay: Membrane potential (GIRK) assay in AtT20 cells, human CB2; assay type: cell-based; settings: at 30 µM; normalized to 1 µM CP 55,940
T1 construct: expressed in transfected cells; host or cells: mouse AtT20 FlpIn cells

rat CB1 receptors = test system: rat CB1 receptors; set-up: method as in PMID 9379442; settings: adenylyl cyclase inhibition; higher potency than CBN; efficacy not reported; cited from earlier work
male Long-Evans rats = assay: Acute polysomnography (wireless EEG/EMG telemetry) in rats; settings: for NREM delta power / REM theta power: EEG power spectra; for NREM delta power: overall effect; for NREM delta power / REM theta power / body temperature / locomotor activity counts: acute IP; for NREM delta power / REM theta power / total sleep time / % NREM sleep / % REM sleep / % active wake / % quiet wake / NREM sleep onset latency / REM bout duration / REM bout number / REM sleep onset latency / cumulative total sleep time / mean duration of NREM bouts per hour / number of NREM bouts per hour / total wake time / body temperature / locomotor activity counts: zolpidem 10 mg/kg; for total sleep time: acute IP at ZT13 (dark phase) vs vehicle, n = 8; for body temperature: subcutaneous; for body temperature / locomotor activity counts: telemetry
human CB1 receptors = human CB1 receptors (Homo sapiens, UniProt P21554); assay: cell-based; assay type: cell-based; set-up: expressed in transfected cells; host or cells: mouse AtT20 FlpIn cells
mice = settings: cited from earlier work; for NREM: mice
rats = test system: rats; set-up: method as in PMID 28934522, PMID 37507813; settings: cited from earlier work
rabbits = test system: rabbits; set-up: method as in PMID 4355439; settings: cited from earlier work
[2] = set-up: method as in PMID 4337346; settings: early human study; cited from earlier work
[3] = ip, rat plasma after CBN 10 mg/kg, post-dose, read-out: plasma Tmax (converted)
[4] = rat brain after CBN 10 mg/kg IP, analyte as labelled
[5] = rat brain after CBN 10 mg/kg IP, analyte as labelled, n = 4
[6] = rat plasma after CBN 10 mg/kg IP, analyte as labelled
[7] = rat plasma after CBN 10 mg/kg IP, analyte as labelled, n = 4
[8] = rat, ip, rat, after CBN 10 mg/kg IP, analyte as labelled
[9] = CBN 10, 30, 100 mg/kg, 11-OH-CBN 1, 3, 10 mg/kg
[10] = acute IP at ZT13 vs vehicle, CBN 10, 30, 100 mg/kg, 11-OH-CBN 1, 3, 10 mg/kg

Chain of human CB1 receptors (P21554 whole entry): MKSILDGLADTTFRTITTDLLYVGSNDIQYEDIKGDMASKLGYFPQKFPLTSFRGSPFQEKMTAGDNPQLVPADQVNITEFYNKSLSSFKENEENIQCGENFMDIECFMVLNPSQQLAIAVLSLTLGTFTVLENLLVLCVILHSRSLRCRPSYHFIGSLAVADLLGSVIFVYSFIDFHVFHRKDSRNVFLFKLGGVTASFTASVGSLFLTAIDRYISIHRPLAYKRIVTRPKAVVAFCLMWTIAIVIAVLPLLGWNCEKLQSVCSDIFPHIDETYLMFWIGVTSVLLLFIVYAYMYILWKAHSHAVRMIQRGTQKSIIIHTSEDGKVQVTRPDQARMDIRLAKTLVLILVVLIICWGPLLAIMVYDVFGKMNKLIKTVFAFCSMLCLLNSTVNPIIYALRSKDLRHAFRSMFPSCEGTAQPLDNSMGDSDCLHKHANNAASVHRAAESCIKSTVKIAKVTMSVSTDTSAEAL
T1 sequence (P34972 whole entry): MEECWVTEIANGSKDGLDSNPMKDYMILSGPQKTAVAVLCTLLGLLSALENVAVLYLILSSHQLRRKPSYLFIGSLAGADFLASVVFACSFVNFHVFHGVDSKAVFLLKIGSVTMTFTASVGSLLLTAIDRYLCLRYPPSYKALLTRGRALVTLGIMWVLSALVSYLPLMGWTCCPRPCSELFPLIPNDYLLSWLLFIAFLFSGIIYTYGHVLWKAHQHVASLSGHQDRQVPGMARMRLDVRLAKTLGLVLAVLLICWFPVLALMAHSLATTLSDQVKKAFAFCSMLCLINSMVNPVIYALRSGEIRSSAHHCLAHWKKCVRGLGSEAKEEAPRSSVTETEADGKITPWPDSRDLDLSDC

## CCCCCc1cc(O)c2c(c1)OC(C)(C)c1ccc(CO)cc1-2 [11-OH-CBN, 11-hydroxy-cannabinol]
[1]; ip, rat brain after CBN 10 mg/kg, read-out: brain Tmax
  Tmax: 2 h
[1]; [3]
  Tmax: 1 h
[1]; ip, rat, after CBN 10 mg/kg, similar in plasma and brain, read-out: half-life in plasma and brain (converted)
  half-life: ~120 min
[1]; [4]
  Brain AUC∞: 1539 pg hour/mg brain
[1]; [5]
  Brain Cmax: 419 ± 37 pg/mg brain
[1]; rat brain after CBN 10 mg/kg IP, analyte as labelled, read-out: Brain t½ (converted)
  half-life: 125 min
[1]; rat brain following systemic administration of CBN
  Brain Cmax: 1.3 µM
[1]; [6]
  Plasma AUC∞: 493 ng·h/mL
[1]; [7]
  Cmax: 170 ± 18 ng/mL
[1]; rat plasma after CBN 10 mg/kg IP, analyte as labelled, read-out: Plasma t½ (converted)
  half-life: 131 min
[1]; rat, after CBN 10 mg/kg IP, analyte as labelled
  Brain/plasma ratio: ~3
[1]; [8]
  Kp: 3.12
Human CB2 receptors
  activity at CB2: 50 ± 6%
Rat CB1 receptors
  potency at rat CB1 receptors: low nM range
Male Long-Evans rats; [9]
  NREM delta power: significantly increased
  REM theta power: significantly increased
  total sleep time: did not significantly increase
  body temperature: decreased
  locomotor activity counts: biphasic effect
Male Long-Evans rats; acute IP at ZT13
  delayed onset of action on % NREM sleep, time post-dosing: 3 to 4 h
Male Long-Evans rats; [10]
  cumulative NREM time: biphasic effect
  cumulative REM time: suppressed I cumulative REM at the highest dose
  % NREM sleep: increased
  % REM sleep: biphasically affected
  % active wake: decreased
  % quiet wake: decreased
  NREM sleep onset latency: increased
  REM bout duration: did not affect
  REM bout number: affected
  REM sleep onset latency: increased
  cumulative total sleep time: biphasically influenced
  mean duration of NREM bouts per hour: significantly decreased
  number of NREM bouts per hour: increased
  total wake time: did not significantly reduce
Human CB1 receptors; CB1, membrane potential assay, AtT20 cells, read-out: pEC50 (converted)
  EC50: 1000 nM
Human CB1 receptors; CB1, normalized to 1 µM CP 55,940, AtT20 cells, read-out: maximal response (Emax)
  Emax: 75 ± 3%
Human CB1 receptors; membrane potential assay
  activity at CB1 receptors (in words): modestly potent partial agonist

## CCCCCCC(C)(C)c1ccc([C@H]2CCC[C@@H](O)C2)c(O)c1 [CP 47,497]
mice
  NREM: increased

## CCCCCc1cc(O)c2c(c1)OC(C)(C)[C@@H]1CCC(C)=C[C@@H]21 [Δ^9-THC, Δ^9-tetrahydrocannabinol]
rats
  REM: suppressed
rabbits
  NREM and REM sleep: early-phase NREM and REM suppression, followed by a later phase increase in NREM sleep
[2]
  NREM and REM sleep: tended to increase NREM but suppress REM sleep

## Cc1ccc(-c2nc3ccc(C)cn3c2CC(=O)N(C)C)cc1 [zolpidem, reference compound]
Male Long-Evans rats; CBN 30 mg/kg and 100 mg/kg at ZT17 and 18, zolpidem 10 mg/kg at ZT13 and 14
  NREM delta power at specific time points: increase
Male Long-Evans rats; [9]
  NREM delta power: Neither CBN nor zolpidem had robust effects
  REM theta power: increased
  total sleep time: increased
  body temperature: did not robustly effect
  locomotor activity counts: decreased
Male Long-Evans rats; [10]
  % NREM sleep: increased
  % REM sleep: did not affect
  % active wake: decreased
  % quiet wake: did not affect
  NREM sleep onset latency: decreased
  REM bout duration: did not affect
  REM bout number: did not affect
  REM sleep onset latency: did not affect
  cumulative total sleep time: increased
  mean duration of NREM bouts per hour: increased
  number of NREM bouts per hour: unaffected
  total wake time: decreased

## O=S(=O)(F)CCCCCc1ccc(O)cc1 [AM3506]
mice
  REM: suppressed
  NREM: increased

## O=C(Oc1ccc([N+](=O)[O-])cc1)N1CCC(C(O)(c2ccc3c(c2)OCO3)c2ccc3c(c2)OCO3)CC1 [JZL184]
mice
  REM: suppressed
  NREM: increased

## CCCCCc1cc(O)c2c(c1)OC(C)(C)c1ccc(C(=O)O)cc1-2 [11-COOH-CBN, 11-carboxy-cannabinol]
[1]; ip, rat brain after CBN 10 mg/kg, read-out: brain T1/2 (converted)
  half-life: 209 min
[1]; [3]
  Tmax: 1 h
[1]; ip, rat plasma after CBN 10 mg/kg, read-out: t1/2 plasma (converted)
  half-life: 271 min
[1]; [4]
  Brain AUC∞: 137 pg hour/mg brain
  Brain t½: 3.48 h
[1]; [5]
  Brain Cmax: 28 ± 5 pg/mg brain
[1]; rat brain after CBN 10 mg/kg IP, analyte as labelled, read-out: Brain tmax
  Tmax: 2 h
[1]; [6]
  Plasma AUC∞: 1181 ng·h/mL
  Plasma t½: 4.52 h
[1]; [7]
  Cmax: 169 ± 38 ng/mL
[1]; [8]
  Kp: 0.12
Human CB2 receptors
  activity at CB2: 41 ± 2%
Human CB1 receptors; 30 µM (highest concentration tested), normalized to 1 µM CP 55,940
  response at CB1: 43 ± 7%
Human CB1 receptors; membrane potential assay
  activity at CB1 receptors (in words): minimal activity
